Test results: article PMC7939384, “In crystallo screening for proline analog inhibitors of the proline cycle enzyme PYCR1” (The Journal of Biological Chemistry, 2021)

Experiments:
[1] = system: MCF10A hRAS^V12 breast cancer spheroids; experiment: 13C5-glutamine tracer analysis of de novo proline biosynthesis in spheroids; format: cell-based; details: 5 mM, 5th day of treatment, 13C5-glutamine incubation, vs untreated
Excerpt: We tested whether NFLP treatment decreases proline biosynthesis in breast cancer cells grown as spheroids. To do so we applied ^13C tracer analysis ([19]), which is a method that can inform about nutrient contribution to biosynthetic pathways, to MCF10A hRAS^V12 breast cancer spheroids grown in DMEM/F12 containing proline. Specifically, we measured the contribution of ^13C5-glutamine to proline, which enables us to conclude on changes in de novo proline biosynthesis.
Figure 7 NFLP targets proline metabolism in breast cancer spheroids.A, abundance of proline M + 0 and M + 5 labeling in MCF10A hRAS^V12 spheroids upon ^13C5-glutamine incubation and treatment without (n = 3) or with NFLP (5 mM; n = 3). Analysis was performed at 5th day of treatment. B, relative abundance of intracellular proline levels in MCF10A hRAS^V12 spheroids upon treatment (5 days) without (n = 6), with THFA (n = 3) or with NFLP (n = 6). C, protein content in MCF10A hRAS^V12 spheroids treated for 5 days without (n = 6), with THFA (n = 3) or with NFLP (n = 6). Bar graphs show mean ± S.D. from biological independent samples and P-values were obtained with Mann-Whitney tests. […]
THFA and NFLP were supplemented (pH neutralized with NaOH) at day zero to the media of MCF10A H-RAS^V12 cells at the concentration of 5 mM. Protein levels were detected with the use of a […] (Thermo Scientific). […]

[2] = system: MCF10A hRAS^V12 spheroids; experiment: Spheroid growth based on protein content; format: cell-based; details: 5 mM, 5 days

`O=CN1CCC[C@H]1C(=O)O` [NFLP, N-formyl L-proline] was tested, and the “13C-labeled (M + 5) fraction of proline” value [1] was “decreased”, the “unlabeled (M + 0) fraction of proline” value [1] was “increased” and the “reduction of spheroid growth based on protein content compared with control” value [2] was 50%.
